In publication PMC5485171 (Diabetes, Obesity & Metabolism, 2017):

Tested on: patients with type 2 diabetes
Assay: Adverse events
Format: in vivo, human
[1] = 28 weeks, as‐treated, number (%) of patients, n = 181 / 122
[2] = 28 weeks, most common AEs (≥5% of patients)

N[C@@H](CC(=O)N1CCn2c(nnc2C(F)(F)F)C1)Cc1cc(F)c(F)cc1F [Sitagliptin, sitagliptin]
symptoms of hypoglycaemia, number of recipients (28 weeks): 7 recipients
AEs leading to withdrawal [1]: 0 (0.0) n (%)
Cardiovascular events (adjudicated) [1]: 0 (0.0) n (%)
Gastrointestinal AEs [1]: 9 (7.4) n (%)
Gastrointestinal AEs: Diarrhea [1]: 2 (1.6) n (%)
Gastrointestinal AEs: Dyspepsia [1]: 1 (0.8) n (%)
Gastrointestinal AEs: Nausea [1]: 2 (1.6) n (%)
Gastrointestinal AEs: Vomiting [1]: 0 (0.0) n (%)
Hypoglycaemia: Major [1]: 0 (0.0) n (%)
Injection‐site‐related AEs [1]: 0 (0.0) n (%)
Injection‐site‐related AEs: Bruising [1]: 0 (0.0) n (%)
Injection‐site‐related AEs: Induration [1]: 0 (0.0) n (%)
Injection‐site‐related AEs: Nodules [1]: 0 (0.0) n (%)
Injection‐site‐related AEs: Pruritus [1]: 0 (0.0) n (%)
Pancreatic cancer (adjudicated) [1]: 0 (0.0) n (%)
Pancreatitis (adjudicated) [1]: 0 (0.0) n (%)
Renal failure [1]: 0 (0.0) n (%)
Serious AEs [1]: 0 (0.0) n (%)
Symptoms of hypoglycaemia [1]: 7 (5.7) n (%)
Thyroid neoplasms (adjudicated) [1]: 0 (0.0) n (%)
nasopharyngitis, proportion of patients [2]: 0.0%
nausea, proportion of patients [2]: 1.6%
Hypoglycaemia: Minor (28 weeks, symptoms and glucose <54 mg/dL, number (%) of patients, n = 181 / 122): 1 (0.8) n (%)
AEs reported, proportion of recipients (28‐week treatment period): 32.8%
Any AE (28‐week treatment period, as‐treated, exenatide 2.0 mg QW sc (n = 181), sitagliptin 100 mg once daily oral (n = 122), number (%) of patients): 40 (32.8) n (%)
